Assay results taken from patent US10407382B2, “EP4 agonists as therapeutic compounds” (ALLERGAN, INC., priority 2014, dated 2019).

Legend:
EP2 [1] = biological target: T1, EP2 (Homo sapiens, UniProt P43116); experiment: cAMP assay, EP2; format: cell-based; parameters: expressed in transfected cells; host or cells: HEK-EBNA cells; settings: HEK-EBNA cells expressing EP2
Protocol: (§1) A 384-well drug plate was prepared to contain 6 test compounds, PGE2 and cAMP in 16 serial dilutions in triplicate, using a Biomek station. HEK-EBNA cells expressing a target PG receptor subtype (EP2 or EP4) were suspended in a stimulation buffer (HBSS, 0.1% BSA, 0.5 mM IBMX and 5 mM HEPES, pH 7.4) in a density of 10^4 cells/5 μL. The reaction was initiated by mixing 5 μL drug dilutions with 5 μL of HEK-EBNA cells in a well, carried out for 30 min at room temperature, and followed by the addition of 5 μL anti-cAMP acceptor beads in the control buffer with Tween-20 (25 mM NaCl, 0.03% Tween-20, 5 mM HEPES, pH 7.4). After 30 min in the dark at room temperature, the mixtures were incubated with 15 μL biotinylated-cAMP/strepavidin donor beads in Lysis/Detection buffer (0.1% BSA, 0.3% Tween-20 and 5 mM HEPES, pH 7.4) for 45 min at the room temperature. Fluorescence changes were read using a Fusion-alpha HT microplate reader.

EP4 [2] = biological target: T2, EP4 (Homo sapiens, UniProt P35408); experiment: Radioligand binding, EP4; parameters: expressed in transfected cells; membrane fraction; settings: [3H]PGE2 competition
Protocol: (§2) Data from running binding and activity studies on the compounds of the invention were carried out as described in U.S. Pat. No. 7,427,685, the contents of which are incorporated herein by reference.
(§3) Cells Stably Expressing EP1, EP2, EP4, and FP Receptors
(§4) HEK-293 cells stably expressing the human or feline FP receptor, or EP1, EP2, or EP4 receptors were washed with TME buffer, scraped from the bottom of the flasks, and homogenized for 30 sec using a Brinkman PT 10/35 polytron. TME buffer was added to achieve a final 40 ml volume in the centrifuge tubes (the composition of TME is 100 mM TRIS base, 20 mM MgCl2, […]; ION HCl is added to achieve a pH of 7.4).
(§5) The cell homogenate was centrifuged at 19000 rpm for 20 min at 4° C. using a Beckman Ti-60 rotor. The resultant pellet was resuspended in TME buffer to give a final 1 mg/ml protein concentration, as determined by Biorad assay. Radioligand binding competition assays vs. [^3H-]17-phenyl PGF2α (5 nM) were performed in a 100 μl volume for 60 min. Binding reactions were started by adding plasma membrane fraction. The reaction was terminated by the addition of 4 ml ice-cold TRIS-HCl buffer and rapid filtration through glass fiber GF/B filters using a Brandel cell harvester. The filters were washed 3 times with ice-cold buffer and oven dried for one hour.
(§6) [^3H-] PGE2 (specific activity 180 Ci mmol) was used as the radio ligand for EP receptors. [^3H] 17-phenyl PGF2α was employed for FP receptor binding studies. Binding studies employing EP1, EP2, EP4 and FP receptors were performed in duplicate in at least three separate experiments. A 200 μl assay volume was used. Incubations were for 60 min at 25° C. and were terminated by the addition of 4 ml of ice-cold 50 mM TRIS-HCl, followed by rapid filtration through Whatman GF/B filters and three additional 4 ml washes in a cell harvester (Brandel). Competition studies were performed using a final concentration of 5 nM [^3H]-PGE2, or 5 nM [^3H] 17-phenyl PGF2α and non-specific binding determined with 10^−5M of unlabeled PGE2, or 17-phenyl PGF2α, according to receptor subtype studied.

EP4 [3] = biological target: T2, EP4; experiment: cAMP assay, EP4; format: cell-based; parameters: expressed in transfected cells; host or cells: HEK-EBNA cells; settings: HEK-EBNA cells expressing EP4
Protocol: as §1

EP2 [4] = biological target: T1, EP2; experiment: Ki competition binding, EP2; parameters: expressed in transfected cells; settings: [3H]PGE2 competition; NA = no activity
Protocol: as §2
Competition binding experiments were performed in a medium containing Hank's balanced salt solution, Hepes 20 mM, pH 7.3, membranes (˜60 μg protein) or 2×10^5 cells from HEK 293 cells stably expressing human EP2 receptors, [^3H]PGE2 (10 nM) and various concentrations of test compounds in a total volume of 300 μl. Reaction mixtures were incubated at 23° C. for 60 min, and were filtered over Whatman GF IB filters under vacuum. Filters were washed three times with 5 ml ice-cold buffer containing 50 mM Tris/HCl (PH 7.3). Non-specific binding was estimated in the presence of excess unlabeled PGE2 (10 μM). Binding data fitted to the binding model for a single class of binding sites, using nonlinear regression analysis. IC50 values thus obtained were converted to Ki using the equation of Ki=(IC50/(1+[L]/KD) where [L] represents PGE2 concentration (10 nM) and KD the dissociation constant for [^3H]PGE2 at human EP2 receptors (40 nM).
as §3, §4, §5, §6

hIP = biological target: T3, hIP (Homo sapiens, UniProt P43119); experiment: FLIPR calcium signal, hIP; format: cell-based; settings: HEK-293(EBNA) cells; NA = no activity; read-out: Other Receptors EC50 hIP
T3 construct: expressed in transfected cells
Protocol: Methods for FLIPR™ Studies
HEK-293(EBNA) cells, stably expressing one type or subtype of recombinant human prostaglandin receptors (prostaglandin receptors expressed: hDP/Gqs5; hEP1; hEP2/Gqs5; hEP3A/Gqi5; hEP4/Gqs5; hFP; hIP; hTP), were cultured in 100 mm culture dishes in high-glucose DMEM medium containing 10% fetal bovine serum, 2 mM I-glutamine, 250 μg/ml geneticin (G418) and 200 μg/ml hygromycin B as selection markers, and 100 units/ml penicillin G, 100 μg/ml streptomycin and 0.25 μg/ml amphotericin B.
(b) Calcium Signal Studies on the FLIPR™
Cells were seeded at a density of 5×10^4 cells per well in Biocoat® Poly-D-lysine-coated black-wall, clear-bottom 96-well plates (Becton-Dickinson) and allowed to attach overnight in an incubator at 37° C. Cells were then washed two times with HBSS-HEPES buffer (Hanks Balanced Salt Solution without bicarbonate and phenol red, 20 mM HEPES, pH 7.4) using a Denley Cellwash plate washer (Labsystems). […]
Cells were excited with an Argon laser at 488 nm, and emission was measured through a 510-570 nm bandwidth emission filter (FLIPR™, Molecular Devices, Sunnyvale, Calif.). […] The peak increase in fluorescence intensity was recorded for each well. […] The peak fluorescence change in each drug-containing well was then expressed relative to the controls. […]

T1 sequence (P43116 whole entry): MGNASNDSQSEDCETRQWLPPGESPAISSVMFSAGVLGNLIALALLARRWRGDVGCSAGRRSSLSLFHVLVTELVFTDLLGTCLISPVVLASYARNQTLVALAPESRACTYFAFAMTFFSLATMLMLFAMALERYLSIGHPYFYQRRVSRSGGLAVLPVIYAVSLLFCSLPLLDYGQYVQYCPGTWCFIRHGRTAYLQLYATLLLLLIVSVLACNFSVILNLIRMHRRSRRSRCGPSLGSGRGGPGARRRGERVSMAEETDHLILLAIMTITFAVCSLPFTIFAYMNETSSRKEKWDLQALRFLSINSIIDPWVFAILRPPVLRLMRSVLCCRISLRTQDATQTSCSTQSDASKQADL
T2 sequence (P35408 whole entry): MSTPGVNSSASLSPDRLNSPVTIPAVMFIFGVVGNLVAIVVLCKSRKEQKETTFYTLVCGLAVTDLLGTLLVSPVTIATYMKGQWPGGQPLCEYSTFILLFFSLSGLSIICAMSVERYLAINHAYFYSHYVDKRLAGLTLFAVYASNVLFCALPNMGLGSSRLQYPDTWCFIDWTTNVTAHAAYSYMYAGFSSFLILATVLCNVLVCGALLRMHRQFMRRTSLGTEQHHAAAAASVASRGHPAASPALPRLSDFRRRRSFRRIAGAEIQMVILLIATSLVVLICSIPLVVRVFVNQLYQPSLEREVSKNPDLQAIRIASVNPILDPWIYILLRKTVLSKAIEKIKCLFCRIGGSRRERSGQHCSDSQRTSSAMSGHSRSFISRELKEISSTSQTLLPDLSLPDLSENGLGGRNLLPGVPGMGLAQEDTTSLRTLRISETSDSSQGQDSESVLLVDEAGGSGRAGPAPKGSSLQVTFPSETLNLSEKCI
T3 sequence (P43119 whole entry): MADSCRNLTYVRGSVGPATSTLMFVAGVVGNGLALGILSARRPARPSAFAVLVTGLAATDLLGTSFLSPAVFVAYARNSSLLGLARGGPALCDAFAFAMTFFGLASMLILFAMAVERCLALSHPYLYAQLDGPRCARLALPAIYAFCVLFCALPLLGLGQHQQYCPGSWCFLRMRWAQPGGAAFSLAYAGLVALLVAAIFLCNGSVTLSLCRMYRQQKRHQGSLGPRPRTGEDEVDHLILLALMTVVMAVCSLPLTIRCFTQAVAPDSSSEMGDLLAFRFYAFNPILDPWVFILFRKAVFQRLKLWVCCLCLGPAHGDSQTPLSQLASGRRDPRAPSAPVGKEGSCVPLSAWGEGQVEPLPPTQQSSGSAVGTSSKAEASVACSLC

EC50 (EP2 [1]) [nM] | Ki (EP4 [2]) [nM] | EC50 (EP4 [3]) [nM] | Ki (EP2 [4]) [nM] | EC50 (hIP) [nM] | SMILES
13 | 8 | > 10000 | 154 |  | O=C(O)c1ccc(CNC(=O)C2CCCC2Cc2cccc(C(F)(F)F)c2)cc1 (single isomer, unassigned) [Example 5, 4-((2-(3-(Trifluoromethyl)benzyl)cyclopentanecarboxamido)methyl)benzoic Acid]
10 | 18 | > 10000 | 733 | > 10000 | O=C(O)c1ccc(CNC(=O)C2CCCC2Cc2cccc(C(F)(F)F)c2)cc1 (single isomer, unassigned) [Example 6, 4-((2-(3-(Trifluoromethyl)benzyl)cyclopentanecarboxamido)methyl)benzoic Acid]
389 | 2 | > 10000 | 2150 |  | COc1cc(CC2CCCCC2C(=O)NCc2ccc(C(=O)O)cc2)cc(OC)c1 (single isomer, unassigned) [Example 9, 4-((2-(3,5-Dimethoxybenzyl)cyclohexanecarboxamido)methyl)benzoic Acid]
25 | 2 | 0.2 | 908 |  | COc1cc(CC2CCCCC2C(=O)NCc2ccc(C(=O)O)cc2)cc(OC)c1 (single isomer, unassigned) [Example 10, 4-((2-(3,5-Dimethoxybenzyl)cyclohexanecarboxamido)methyl)benzoic Acid]
1310 | 9 | > 10000 | > 10000 |  | COc1cc(CC2CCCCCC2C(=O)NCc2ccc(C(=O)O)cc2)cc(OC)c1 (single isomer, unassigned) [Example 12, 4-((2-(3,5-Dimethoxybenzyl)cycloheptanecarboxamido)methyl)benzoic Acid]
573 | 2 | 0.2 | 6300 |  | COc1cc(CC2CCCCCC2C(=O)NCc2ccc(C(=O)O)cc2)cc(OC)c1 (single isomer, unassigned) [Example 13, 4-((2-(3,5-Dimethoxybenzyl)cycloheptanecarboxamido)methyl)benzoic Acid]
33 | 5 | 1 | 1120 |  | COc1cc(CC2=C(C(=O)NCc3ccc(C(=O)O)cc3)CCC2)cc(OC)c1 [Example 3, 4-((2-(3,5-Dimethoxybenzyl)cyclopent-1-enecarboxamido)methyl)benzoic Acid]
2 | 7 | > 10000 | 109 |  | O=C(NCc1ccc(C(=O)O)cc1)C1=C(Cc2cccc(C(F)(F)F)c2)CCC1 [Example 4, 4-((2-(3-(Trifluoromethyl)benzyl)cyclopent-1-enecarboxamido)methyl)benzoic Acid]
2 | 1 | 0.2 | 177 |  | COc1cc(CC2=C(C(=O)NCc3ccc(C(=O)O)cc3)CCCC2)cc(OC)c1 [Example 8, 4-((2-(3,5-Dimethoxybenzyl)cyclohex-1-enecarboxamido)methyl)benzoic Acid]
48 | 1 | > 10000 | 2780 | > 10000 | COc1cc(CC2=C(C(=O)NCc3ccc(C(=O)O)cc3)CCCCC2)cc(OC)c1 [Example 11, 4-((2-(3,5-Dimethoxybenzyl)cyclohept-1-enecarboxamido)methyl)benzoic Acid]
 | 0.2 | > 10000 | > 10000 |  | COc1cc(C/C2=C(\C(=O)NCc3ccc(C(=O)O)cc3)CCCCCC2)cc(OC)c1 [Example 20, 4-((2-(3,5-Dimethoxybenzyl)cyclooct-1-enecarboxamido)methyl)benzoic Acid]
 | 4 | > 10000 | 83 |  | O=C(NCc1ccc(C(=O)O)cc1)C1=C(Cc2ccccc2Cl)CCCC1 [Example 24, 4-((2-(2-Chlorobenzyl)cyclohex-1-enecarboxamido)methyl)benzoic Acid]
 | 2 | > 10000 | 138 |  | COc1cccc(CC2=C(C(=O)NCc3ccc(C(=O)O)cc3)CCCC2)c1 [Example 27, 4-((2-(3-Methoxybenzyl)cyclohex-1-enecarboxamido)methyl)benzoic Acid]
 | 6 | > 10000 | 219 |  | COc1ccccc1CC1=C(C(=O)NCc2ccc(C(=O)O)cc2)CCCC1 [Example 30, 4-((2-(2-Methoxybenzyl)cyclohex-1-enecarboxamido)methyl)benzoic Acid]
 | 1 | > 10000 | 1140 |  | COc1ccc(CC2=C(C(=O)NCc3ccc(C(=O)O)cc3)CCCC2)cc1 [Example 33, 4-((2-(4-Methoxybenzyl)cyclohex-1-enecarboxamido)methyl)benzoic Acid]
